# Read-outs that look alike come from different tables or passages of the source.
# How the values were obtained:
# [1] = molecular target: T1, RI, regulatory subunit of cAMP-dependent protein kinase type I (Oryctolagus cuniculus, UniProt G1TDN4); experiment: Binding affinity for RI (Table 14)
# T1 construct: from tissue
# Protocol: (§1) RI and RII are the regulatory subunits of cAMP-dependent protein
# (§2) kinase type I and type II, respectively. Site A (Site 2) and Site B
# (§3) (RI and RII): the affinities of analogues for Site A and Site B were
# (§4) determined by the measurement of kinetic constants (inhibition constant,
# (§5) Ki), and the values are expressed as the relative affinity Ki
# (§6) (analogue), i.e., the ratio between the apparent inhibition constant for
# (§7) cAMP and the analogue, as described in Ogreid et al., Eur. J. Biochem.
# [2] = molecular target: T2, RII, regulatory subunit of cAMP-dependent protein kinase type II (Bos taurus, UniProt P00515); experiment: Binding affinity for RII (Table 14)
# T2 construct: from tissue
# Protocol: as §1, §2, §3, §4, §5, §6, §7
# [3] = molecular target: T3, Protein kinase type I (cAKI) (Oryctolagus cuniculus, UniProt G1TDN4); experiment: Protein kinase activation (Table 15); format: biochemical, rabbit (skeletal muscle)
# T3 construct: prepared from rabbit skeletal muscle and bovine heart; from tissue; host or cells: rabbit skeletal muscle
# Protocol: (§8) ATP to Kemptide as described by Ogreid et al., Eur. J. Biochem. 150: 219-227 (1985).
# (§9) Protein kinases types I (cAKI) and II (cAKII) were
# (§10) prepared from rabbit skeletal muscle and bovine heart,
# (§11) respectively, as described in D.o slashed.skeland et al. (J. Biol.
# (§12) of the protein kinase in Ogreid et al. (Eur. J. Biochem.
# [4] = molecular target: T4, Protein kinase type II (cAKII) (Bos taurus, UniProt P00515); experiment: Protein kinase activation (Table 15); format: biochemical, bovine (heart)
# T4 construct: prepared from rabbit skeletal muscle and bovine heart; from tissue; host or cells: bovine heart
# Protocol: as §8, §9, §10, §11, §12
# [5] = tested on: HL-60 human leukemia cells; experiment: Growth inhibition of HL-60 leukemia cells (Example 3, Table 16); format: cell-based; conditions: for IC50: Homo sapiens
# Protocol: HL-60 leukemic cells were obtained from the American Type Culture Collection (Rockville, Md.) and were grown in suspension culture in RPMI 1640 supplemented with 10% heat-inactivated fetal bovine serum, streptomycin (500 μg/ml), penicillin (50 units/ml), and glutamine (1 mM) (Gibco, Grand Island, N.Y.).
# Cell counts were performed at desired times on a Coulter Counter.
# The IC50 values were determined from the dose-
# represent an average value obtained for each analogue
# from two or more separate experiments carried out from 3
# days or 6 days. Initial cell number, 1 × 10^5 /dish.
# Typical numbers of untreated control cells at day 3 and
# viability in treated and control cells.
# [6] = tested on: HL-60 Cells; experiment: Cell cycle kinetics of HL-60 cells (Table 17); format: cell-based, human; conditions: for % G2 M / % G0-G1 / % S: 96 hours; for % G2 M: control 8.3; for % G0-G1: control 45.7; for % S: control 46
# Protocol: (§13) Briefly, cells were fixed in 70% ethanol and stored at 4° C. before analysis. Nuclear DNA was stained with propidium iodide, 50 μg/ml in phosphate-buffered saline (pH 7.4), for 30 minutes at room temperature. RNase was added to avoid double-helix RNA staining. The DNA content of cells was analyzed by a FACScan flow cytometer coupled with a Hewlett-Packard computer. Cell cycle data analysis was performed by a Cell-FIT program according to the method of Dean (Cell Tissue Kinet. 13: 299-308 (1980)) (Becton Dickinson Immunocytometry Systems). Pulse area versus pulse width gating was performed to exclude doublets from the G2 -M region. For each sample, 20,000 events were stored in list mode. Cell surface antigen analysis was performed by flow cytometry with FACScan using a panel of monoclonal antibodies reactive with either monocytic or myeloid cells.
# [7] = tested on: LS-174T human colon carcinoma cells; experiment: Growth inhibition of LS-174T cells (Example 4, Table 18); format: cell-based
# Protocol: LS-174T human colon carcinoma cells were obtained from the National Cancer Institute, Division of Cancer Treatment, Bethesda, Md., and were grown in Eagle's minimum essential medium supplemented with 10% heat-inactivated fetal bovine serum, Eagle's minimum essential medium nonessential amino acids, 20 mM 4-(2-hydroxyethyl)-1-piperazineethanesulfonic acid, 2mM glutamine, and penicillin-streptomycin (Gibco). The medium was changed every 48 hours.
# LS-174T cells were seeded at a density of 2×10^5 / 60 mm dish. […] At desired times, cell counts were performed in duplicate on a Coulter Counter after harvesting cells with gentle trypsinization.
# The percentage growth inhibition values shown at 10
# and 50 μM analogue concentrations were determined from
# the dose-response curve experiments like those shown in
# FIG. 1 and represent an average value obtained for each
# analogue from two or more separate experiments. Sp-6-SET-
# [8] = tested on: HL-60 leukemia cells; experiment: Surface antigen expression of HL-60 cells (Example 5); format: cell-based, human; conditions: 100 μM
# Protocol: as §13
# The effect of Rp- and Sp-8-Cl-cAMPS on the expression of differentiation markers in HL-60 cells was examined to determine if the growth-arrested HL-60 cells are more differentiated than untreated cells. […] For each sample, 2×10^4 cells were analyzed. Cell surface antigen analysis was performed by flow cytometry with FACScan. Cell gating was performed using forward and side scatter.
# [9] = tested on: YAC lymphoma cell; conditions: mouse, in vivo; cited from earlier work
# [10] = tested on: breast (MCF-7) and colon (LS-174T) cancer cell lines; experiment: Growth inhibition of breast and colon cancer cells (Table 1); format: cell-based, human; conditions: Homo sapiens
# Protocol: The compounds of the present invention were added using 100X concentrated stock solutions. At desired times, cell counts in duplicate were performed on a Coulter counter after harvesting the cells with gentle trypsinization. […] Cell counts were performed on each of three or more separate experiments, and the average values are expressed as percent growth inhibition as compared with untreated control cells. | ^a The values of percentage growth inhibition were determined from th | doseresponse curve experiments. Each value represents an average value an | range (in parentheses) obtained from three or more separate experiments. | The cell counts in duplicate were performed at day 3 and day 4 after two | treatments (day 0 and day 2) with analogs (seeding on day -1).
# [11] = tested on: breast and colon cancer lines (MCF-7, T-47D, ZR-75-1, MCF-7ras, MDA-MB-231, BT-20, HBL-100, LS-174T, WiDr, HT-29); conditions: millimolar concentrations; previously reported; cited from earlier work
# [12] = tested on: MCF-7ras breast cancer cell line; experiment: Synergistic growth inhibition by analogue combinations (Table 2); format: cell-based, human; conditions: footnote of Table 2
# Protocol: All breast cancer cell lines were grown in IMEM supplemented with 10% fetal bovine serum, HEPES 20 mM, penicillin-streptomycin, and extra glutamine. Colon carcinoma cell lines were grown in EMEM supplemented with 10% FBS, EMEM, NEAA, HEPES 20 mM, extra glutamine, and penicillin-streptomycin. The cells were grown at 37° C. in humidified incubators in an atmosphere of 5% CO2.
# For cell growth experiments, 2-3×10^5 cells/60 mm dish were seeded, and 24 hours later (Day 0), the medium was removed, and fresh medium and the additives were added then and every 48 hours thereafter. The compounds of the present invention were added using 100X concentrated stock solutions. At desired times, cell counts in duplicate were performed on a Coulter counter after harvesting the cells with gentle trypsinization.
# Synergism quotient was defined as the net growth inhibitory effect of the analogue combination divided by the sum of the net analogue effects on growth inhibition. A quotient of >1 indicates a synergistic effect, while a quotient of <1 indicates an antagonistic effect.
# Synergism of growth inhibition was determined by
# treatment of cells with C-6 analogues and C-8 analogues alone
# and in combination at Day 0 and Day 2 and counting the cell
# ^a Data are expressed as percentage growth inhibition in reference to
# the growth of untreated control cells and represent average values and
# ranges (in parentheses) of duplicate cell counts on three or more separat
# experiments. The values for percentage growth inhibition of each analogue
# ^b The synergism quotient was defined as previously described.
# [13] = tested on: HL-60; experiment: Growth inhibition of leukemic cells (Table 12); format: cell-based; conditions: Homo sapiens
# [14] = tested on: Molt-4; experiment: Growth inhibition of leukemic cells (Table 12); format: cell-based, human; conditions: Homo sapiens, MOLT-4; read-out: Inhibition of Growth IC50, Molt-4
# [15] = tested on: K-562; experiment: Growth inhibition of leukemic cells (Table 12); format: cell-based; conditions: Homo sapiens, K562
# [16] = tested on: myc-K562; experiment: Growth inhibition of leukemic cells (Table 12); format: cell-based; conditions: Homo sapiens
# [17] = tested on: four leukemic cell lines (HL-60, K-562, myc-K562, Molt-4); experiment: Growth inhibition of leukemic cell lines; format: cell-based, human; conditions: leukemic cell lines
# [18] = half-maximum activation, U. M.: unmeasurable
# [19] = 72 h, 50 μM, day 3, average (range), read-out: % Growth Inhibition, Day 3
# [20] = 96 h, 50 μM, day 4, average (range), read-out: % Growth Inhibition, Day 4
# T1 sequence (G1TDN4 1-381): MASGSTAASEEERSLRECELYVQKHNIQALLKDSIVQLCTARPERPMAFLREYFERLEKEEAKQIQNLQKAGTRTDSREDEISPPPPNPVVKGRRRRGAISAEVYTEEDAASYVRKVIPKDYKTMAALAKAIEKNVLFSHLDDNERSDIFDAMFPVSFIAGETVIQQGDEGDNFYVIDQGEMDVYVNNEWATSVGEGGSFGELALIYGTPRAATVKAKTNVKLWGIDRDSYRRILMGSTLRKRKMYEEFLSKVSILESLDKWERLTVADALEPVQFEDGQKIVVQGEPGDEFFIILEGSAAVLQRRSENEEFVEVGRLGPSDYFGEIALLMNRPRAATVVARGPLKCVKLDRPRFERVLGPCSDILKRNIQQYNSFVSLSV
# T2 sequence (P00515 whole entry): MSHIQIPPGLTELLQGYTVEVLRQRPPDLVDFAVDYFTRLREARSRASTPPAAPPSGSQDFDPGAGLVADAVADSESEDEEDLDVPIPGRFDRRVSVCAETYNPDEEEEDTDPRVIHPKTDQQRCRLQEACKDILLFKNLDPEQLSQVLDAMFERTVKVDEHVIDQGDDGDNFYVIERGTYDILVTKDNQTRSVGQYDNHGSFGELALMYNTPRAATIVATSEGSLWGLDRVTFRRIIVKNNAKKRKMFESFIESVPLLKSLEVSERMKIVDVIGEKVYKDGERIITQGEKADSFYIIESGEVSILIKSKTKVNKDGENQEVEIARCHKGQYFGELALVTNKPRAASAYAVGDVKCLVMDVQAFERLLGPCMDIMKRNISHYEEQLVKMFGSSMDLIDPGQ
# T4 sequence (P00515 2-401 limits assumed): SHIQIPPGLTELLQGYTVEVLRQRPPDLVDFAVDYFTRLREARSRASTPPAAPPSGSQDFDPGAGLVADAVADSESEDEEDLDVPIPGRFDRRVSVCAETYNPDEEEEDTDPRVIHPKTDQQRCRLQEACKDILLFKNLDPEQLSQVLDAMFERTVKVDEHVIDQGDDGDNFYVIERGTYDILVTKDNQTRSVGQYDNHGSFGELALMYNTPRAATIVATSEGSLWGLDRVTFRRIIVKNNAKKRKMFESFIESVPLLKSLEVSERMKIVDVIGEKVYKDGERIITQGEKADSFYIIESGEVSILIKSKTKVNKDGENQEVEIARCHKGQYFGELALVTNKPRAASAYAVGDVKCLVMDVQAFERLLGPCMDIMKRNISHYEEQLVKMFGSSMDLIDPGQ
# T3 sequence (G1TDN4 1-381): as the sequence (G1TDN4 1-381) above
molecule,measurement,setting,value
"Nc1ncnc2c1nc(Cl)n2[C@@H]1O[C@@H]2CO[P@](O)(=S)O[C@H]2[C@H]1O [Sp-8-Cl-cAMPS, Sp-(axial exocyclic sulfursubstitution) 8-chloro-adenosine 3': 5'-monophosphorothioate]","relative affinity Ki (cAMP)/Ki (analogue), RI Site A",[1]; Site A (Site 2),0.18
same,"relative affinity Ki (cAMP)/Ki (analogue), RI Site B",[1]; Site B (Site 1),0.037
same,decrease in affinity for Site A of RI vs corresponding cyclophosphate,[1]; vs cyclophosphate,15 fold
same,decrease in affinity for Site B of RI vs corresponding cyclophosphate,[1]; vs cyclophosphate,54 fold
same,"relative affinity Ki (cAMP)/Ki (analogue), RII Site A",[2]; Site A (Site 2),0.0023
same,"relative affinity Ki (cAMP)/Ki (analogue), RII Site B",[2]; Site B (Site 1),2.4
same,decrease in affinity for Site A of RII vs corresponding cyclophosphate,[2]; vs cyclophosphate,22 fold
same,decrease in affinity for Site B of RII vs corresponding cyclophosphate,[2]; vs cyclophosphate,1.9 fold
same,"Activation Constant (Ka), cAKI",[3]; [18],2.5 × 10^-7
same,increase in the Ka for protein kinase type I vs 8-Cl-cAMP,[3]; vs 8-Cl-cAMP,11 fold
same,"Activation Constant (Ka), cAKII",[4]; [18],2.5 × 10^-7
same,increase in the Ka for protein kinase type II vs 8-Cl-cAMP,[4]; vs 8-Cl-cAMP,2.5 fold
same,IC50,"[5]; HL-60, 72 h, read-out: Growth inhibition (IC50), Day 3",100 µM
same,IC50,"[5]; HL-60, 144 h, read-out: Growth inhibition (IC50), Day 6",8 µM
same,fold less potent than 8-Cl-cAMP,"[5]; growth inhibition HL-60, day 6",20 fold
same,% G2 M,[6]; 10 μM,8.9%
same,% G0-G1,[6]; 10 μM,46.8%
same,% S,[6]; 10 μM,44.3%
same,% G2 M,[6]; 50 μM,8.6%
same,% G0-G1,[6]; 50 μM,46%
same,% S,[6]; 50 μM,45.4%
same,% G2 M,[6]; 100 μM,9.0%
same,% G0-G1,[6]; 100 μM,56%
same,% S,[6]; 100 μM,35%
same,cell cycle phase distribution,"[6]; HL-60, 96 hours in Table 17",not appreciably different
same,inhibition at 10 µM,"[7]; Homo sapiens, LS174T",20%
same,inhibition at 50 µM,"[7]; Homo sapiens, LS174T",40%
same,growth inhibitory potency,[7]; LS-174T,moderate potency
same,surface antigen expression,[8],no appreciable effect on the surface antigen expression
cholera toxin,inhibition of YAC lymphoma cell proliferation,[9],almost complete inhibition of YAC lymphoma cell proliferation for up to four days
CCCC(=O)Nc1ncnc2c1ncn2[C@@H]1O[C@@H]2COP(=O)(O)O[C@H]2[C@H]1O [N^6 -butyryl-cAMP],inhibition at 50 µM,[10]; [19],0%
same,inhibition at 50 µM,[10]; [20],0%
same,growth inhibition,[11],growth inhibition only in the hormone-dependent breast cancer lines
CNc1nc2c(N)ncnc2n1[C@@H]1O[C@@H]2COP(=O)(O)O[C@H]2[C@H]1O [8-methylamino-cAMP],inhibition at 50 µM,[10]; [19],14%
same,inhibition at 50 µM,[10]; [20],15%
same,inhibition at 50 µM,"[10]; 50 micromolar, read-out: growth inhibition",≤ 20%
same,percentage growth inhibition of each analogue when added alone,[12],10%
same,IC50,[13],100 µM
same,IC50,[14],100 µM
same,IC50,[15],100 µM
same,IC50,[16],100 µM
same,times less potent than 8-Cl-cAMP,[17],5-20 times
